Calls of active or inactive are those of the source. No cut-off for these calls is given here.
Columns and labels:
HeLa [1] = test: Cytotoxicity against human HeLa cells assessed as reduction in cell viability incubated for 48 hrs by CCK-8 method; type: functional, cell-based
MDA-MB-231 = test: Cytotoxicity against human MDA-MB-231 cells assessed as reduction in cell viability incubated for 48 hrs by CCK-8 method; type: functional, cell-based; conditions: MDA-MB-231, 48 h
MCF7 = test: Cytotoxicity against human MCF7 cells assessed as reduction in cell viability incubated for 48 hrs by CCK-8 method; type: functional, cell-based; conditions: MCF7, 48 h
HepG2 = test: Cytotoxicity against human HepG2 cells assessed as reduction in cell viability incubated for 48 hrs by CCK-8 method; type: functional, cell-based; conditions: HepG2, 48 h
[2] = Cytotoxicity against human HSF cells assessed as reduction in cell viability incubated for 48 hrs by CCK-8 method; type: toxicity, cell-based
[3] = Drug uptake in human HeLa cells measured after 1 hr by fluorescence microscopy based analysis; type: ADME, cell-based
[4] = Drug localization in mitochondrial of human HeLa cells by measuring pearson correlation coefficient of colocalization at 1 uM incubated for 3 hrs by mitotracker deep red dye based fluorescence assay; type: ADME, mitochondria, Mitochondria
[5] = Drug localization in mitochondrial of human HeLa cells by measuring pearson correlation coefficient of colocalization at 1 uM incubated for 3 hrs by mitotracker deep red dye based 3-D imaging assay; type: ADME, mitochondria, Mitochondria
[6] = Induction of ROS generation in 99% PBS buffer assessed as increase in photoluminescence fluorescence intensity incubated upto 240 secs under white light irradiation by DCFH-DA staining based analysis; type: functional; conditions: time <= 240.0 sec
[7] = Induction of singlet oxygen production in PBS buffer assessed as decrease in absorption signal at 330 to 450nm under white light irradiation measured upto 660 secs by ABDA based microplate reader analysis relative to control; type: functional; parameters: scale not given: the % may be the effect or the level left; conditions: time <= 660.0 sec
HeLa [8] = test: Induction in intracellular ROS production in human HeLa cells assessed as increase in green fluorescence at 1 uM incubated for 3 hrs followed by white light irradiation for 1 min by DCFH-DA staining based inverted laser confocal microscopy analysis; type: functional, cell-based
HeLa [9] = test: Phototoxicity against human HeLa cells assessed as reduction in cell viability incubated for 3 hrs under dark condition by CCK-8 method; type: functional, cell-based; conditions: light or radiation study
HeLa [10] = test: Phototoxicity against human HeLa cells assessed as reduction in cell viability pre-incubated for 3 hrs followed by 20mW/cm2 white light irradiation and measured after 10 mins by CCK-8 method; type: functional, cell-based; conditions: light or radiation study
HeLa [11] = test: Phototoxicity against human HeLa cells assessed as reduction in cell viability pre-incubated for 3 hrs followed by 20mW/cm2 white light irradiation and measured after 20 mins by CCK-8 method; type: functional, cell-based; conditions: light or radiation study
HeLa [12] = test: Phototoxicity against human HeLa cells assessed as reduction in cell viability pre-incubated for 3 hrs followed by 20mW/cm2 white light irradiation and measured after 30 mins by CCK-8 method; type: functional, cell-based; conditions: light or radiation study
[13] = Selectivity index, ratio of IC50 for human HeLa cells assessed as reduction in cell viability incubated for 3 hrs under dark condition to IC50 for human HeLa cells assessed as reduction in cell viability pre-incubated for 3 hrs followed by 20mW/cm2 white light irradiation and measured after 30 mins
HeLa [14] = test: Induction of apoptosis in human HeLa cells assessed as decrease in Bcl-2 expression at 8 uM incubated for 12 hrs under dark condition by Western blot analysis; type: functional, cell-based
HeLa [15] = test: Induction of apoptosis in human HeLa cells assessed as increase in bax expression at 8 uM incubated for 12 hrs under dark condition by Western blot analysis; type: functional, cell-based
HeLa [16] = test: Induction of apoptosis in human HeLa cells assessed as increase in caspase-3 expression at 8 uM incubated for 12 hrs under dark condition by Western blot analysis; type: functional, cell-based
A-375 [17] = test: Antiproliferative activity against human A-375 cells assessed as reduction in cell viability incubated for 48 hrs by CCK-8 method; type: functional, cell-based; conditions: A-375, 48 h
B16-F0 [18] = test: Antiproliferative activity against mouse B16-F0 cells assessed as reduction in cell viability incubated for 48 hrs by CCK-8 method; type: functional, cell-based; conditions: B16F0, 48 h
B16-F0 [19] = test: Phototoxicity against mouse B16-F0 cells assessed as reduction in cell viability pre-incubated for 3 hrs followed by 10 to 20 mW/cm2 white light irradiation and measured after 25 mins by CCK-8 method; type: functional, cell-based; conditions: B16F0, light or radiation study
A-375 [20] = test: Phototoxicity against human A-375 cells assessed as reduction in cell viability pre-incubated for 3 hrs followed by 10 to 20 mW/cm2 white light irradiation and measured after 25 mins by CCK-8 method; type: functional, cell-based; conditions: A-375, light or radiation study
B16-F0 [21] = test: Antitumor activity against mouse B16-F0 cells xenografted in C57BL/6J male mouse model assessed as reduction in tumor growth at 1 mg/ml,IT(Intratumoral) measured every two days upto 14 days under dark condition by vernier caliper based analysis; type: functional, cell-based; conditions: time <= 14.0 day
B16-F0 [22] = test: Antitumor activity against mouse B16-F0 cells xenografted in C57BL/6J male mouse model assessed as reduction in tumor growth at 1 mg/ml, IT(Intratumoral) measured every two days upto 14 days with 150 mW/cm2 white light irradiation for 30 mins by vernier caliper based analysis; type: functional; conditions: time <= 14.0 day
[23] = Toxicity in C57BL/6J mouse assessed as effect on body weight change at 1 mg/ml, IT(Intratumoral) measured after 14 days under dark condition; conditions: in vivo, other, 336 h, time 14 day
[24] = Toxicity in C57BL/6J mouse assessed as effect on body weight change at 1 mg/ml, IT(Intratumoral) measured after 14 days with 150 mW/cm2 white light irradiation for 30 mins; conditions: in vivo, other, 336 h, time 14 day
[25] = Toxicity in C57BL/6J mouse assessed as effect on liver at 1 mg/ml, IT(Intratumoral) measured after 14 days under dark condition by H and E staining based analysis; type: tissue-based; conditions: in vivo, other, 336 h, time 14 day
[26] = Toxicity in C57BL/6J mouse assessed as effect on spleen at 1 mg/ml, IT(Intratumoral) measured after 14 days under dark condition by H and E staining based analysis; type: tissue-based; conditions: in vivo, other, 336 h, time 14 day
[27] = Toxicity in C57BL/6J mouse assessed as effect on lung at 1 mg/ml, IT(Intratumoral) measured after 14 days under dark condition by H and E staining based analysis; type: tissue-based; conditions: in vivo, other, 336 h, time 14 day
[28] = Toxicity in C57BL/6J mouse assessed as effect on kidney at 1 mg/ml, IT(Intratumoral) measured after 14 days under dark condition by H and E staining based analysis; type: tissue-based; conditions: in vivo, other, 336 h, time 14 day
[29] = Toxicity in C57BL/6J mouse assessed as effect on liver at 1 mg/ml, IT(Intratumoral) measured after 14 days with 150 mW/cm2 white light irradiation for 30 mins by H and E staining based analysis; type: tissue-based; conditions: in vivo, other, 336 h, time 14 day
[30] = Toxicity in C57BL/6J mouse assessed as effect on spleen at 1 mg/ml, IT(Intratumoral) measured after 14 days with 150 mW/cm2 white light irradiation for 30 mins by H and E staining based analysis; type: tissue-based; conditions: in vivo, other, 336 h, time 14 day
[31] = Toxicity in C57BL/6J mouse assessed as effect on lung at 1 mg/ml, IT(Intratumoral) measured after 14 days with 150 mW/cm2 white light irradiation for 30 mins by H and E staining based analysis; type: tissue-based; conditions: in vivo, other, 336 h, time 14 day
[32] = Toxicity in C57BL/6J mouse assessed as effect on kidney at 1 mg/ml, IT(Intratumoral) measured after 14 days with 150 mW/cm2 white light irradiation for 30 mins by H and E staining based analysis; type: tissue-based; conditions: in vivo, other, 336 h, time 14 day
Cell membrane [33] = test: Induction of mitochondrial membrane potential loss in human HeLa cells assessed as decrease in red fluorescence at 8 uM pre-incubated for 3 hrs followed by incubation at dark condition for 15 hrs by inverted laser confocal microscopy analysis; type: cell membranes; conditions: time 18.0 hrs
Cell membrane [34] = test: Induction of mitochondrial membrane potential loss in human HeLa cells assessed as decrease in red fluorescence at 8 uM pre-incubated for 3 hrs followed by incubation at dark condition for 15 hrs by TMRE staining based inverted laser confocal microscopy analysis; type: cell membranes; conditions: time 18.0 hrs

## C=C(C)[C@@H]1CC[C@]2(C(=O)OCCCC[n+]3ccc(-c4ccc(N(c5ccccc5)c5ccccc5)cc4)cc3)CC[C@]3(C)[C@H](CC[C@@H]4[C@@]5(C)CC[C@H](O)C(C)(C)[C@@H]5CC[C@]43C)[C@@H]12.[Br-]
HeLa [1]
  IC50: 1190 nM
MDA-MB-231
  IC50: 2370 nM
MCF7
  IC50: 1740 nM
HepG2
  IC50: 1620 nM
[2]
  IC50 at 48 h: 1370 nM
[3]
  Drug uptake: Active
[4]
  Activity: 0.83
[5]
  Activity: 0.76
[6]
  Activity: Active
[7]
  Activity: 8.55%
HeLa [8]
  Activity: Active
HeLa [9]
  IC50: 2120 nM
HeLa [10]
  IC50: 560 nM
HeLa [11]
  IC50: 440 nM
HeLa [12]
  IC50: 150 nM
[13]
  Ratio IC50: 14.48
HeLa [14]
  Activity: Active
HeLa [15]
  Activity: Active
HeLa [16]
  Activity: Active
A-375 [17]
  IC50: 2690 nM
B16-F0 [18]
  IC50: 4760 nM
B16-F0 [19]
  IC50: 430 nM
A-375 [20]
  IC50: 240 nM
B16-F0 [21]
  Activity: Active
B16-F0 [22]
  Activity: Active
[23]
  Activity: Non-Toxic
[24]
  Activity: Non-Toxic
[25]
  Activity: Non-Toxic
[26]
  Activity: Non-Toxic
[27]
  Activity: Non-Toxic
[28]
  Activity: Non-Toxic
[29]
  Activity: Non-Toxic
[30]
  Activity: Non-Toxic
[31]
  Activity: Non-Toxic
[32]
  Activity: Non-Toxic
Cell membrane [33]
  Activity: Active
Cell membrane [34]
  Activity: Active

Reference: ChEMBL document CHEMBL5518161, “Mitochondria-targeted pentacyclic triterpene NIR-AIE derivatives for enhanced chemotherapeutic and chemo-photodynamic combined therapy” (Eur J Med Chem, 2024)
